Reference: the NIST ThermoML archive (doi:10.1016/j.jct.2016.08.022)

Tests used:
[1] = Molar enthalpy of transition or fusion; settings: Crystal 2; Adiabatic calorimetry
[2] = for molar entropy: 101.33 kPa, Small (less than 1 g) adiabatic calorimetry

CCC(=O)O[C@]1(C(=O)COC(C)=O)CC[C@H]2[C@@H]3C[C@H](C)C4=CC(=O)C=C[C@]4(C)[C@H]3[C@@H](O)C[C@@]21C [Methylprednisolone aceponate]
Settings	Molar enthalpy of transition or fusion [kcal/mol]
[1]	0.0526

[2]
Settings	molar entropy [J/K/mol]
5 K, Crystal 2	0.628
10 K, Crystal 2	4.44
15 K, Crystal 2	10.8
20 K, Crystal 2	18.5
25 K, Crystal 2	27.49
30 K, Crystal 2	37.43
40 K, Crystal 2	58.9
50 K, Crystal 2	81.57
60 K, Crystal 2	105
70 K, Crystal 2	128.9
80 K, Crystal 2	152.9
90 K, Crystal 2	177.1
100 K, Crystal 2	201.3
110 K, Crystal 2	225.4
120 K, Crystal 2	249.3
130 K, Crystal 2	273.2
140 K, Crystal 1	296.3
150 K, Crystal 1	318.6
160 K, Crystal 1	340.7
170 K, Crystal 1	362.5
180 K, Crystal 1	384.1
190 K, Crystal 1	405.4
200 K, Crystal 1	426.6
210 K, Crystal 1	447.6
220 K, Crystal 1	468.5
230 K, Crystal 1	489.3
240 K, Crystal 1	509.9
250 K, Crystal 1	530.5
260 K, Crystal 1	551
270 K, Crystal 1	571.5
280 K, Crystal 1	591.8
290 K, Crystal 1	612.1
298.15 K, Crystal 1	628.6
300 K, Crystal 1	632.4
310 K, Crystal 1	652.6
320 K, Crystal 1	672.9
330 K, Crystal 1	693.1
340 K, Crystal 1	713.4
346 K, Crystal 1	725.6

Settings	Triple point temperature [K]
[2], Crystal 2, Adiabatic calorimetry	131
